Experimental data published in ChEMBL document CHEMBL5331114, “Discovery of Pyxinol Amide Derivatives Bearing Amino Acid Residues as Nonsubstrate Allosteric Inhibitors of P-Glycoprotein-Mediated Multidrug Resistance” (J Med Chem, 2023).

Key:
[1] = Cytotoxicity against human KBV Cells assessed as cell survival rate at 10 uM incubated for 72 hrs by MTT assay; type: functional; conditions: read-out: Survival
[2] = Reversal of multidrug resistance in human KBV Cells assessed as increase in PTX-induced cytotoxicity by measuring cell survival rate at 10 uM incubated for 72 hrs in presence of paclitaxel by MTT assay relative to control; type: functional; conditions: read-out: Survival
[3] = Reversal of multidrug resistance in human KBV Cells assessed as increase in PTX-induced cytotoxicity by measuring cell survival rate at 5 uM incubated for 72 hrs in presence of paclitaxel by MTT assay relative to control; type: functional; conditions: read-out: Survival
[4] = Reversal of multidrug resistance in human KBV Cells assessed as reversal fold of paclitaxel IC50 at 5 uM incubated for 72 hrs in presence of paclitaxel by MTT assay; type: functional
[5] = Reversal of multidrug resistance in human KBV Cells assessed as reversal fold of paclitaxel IC50 at 10 uM incubated for 72 hrs in presence of paclitaxel by MTT assay; type: functional
[6] = Drug accumulation in human KBV cells at 10 uM incubated for 4 hrs by LC-MS/MS analysis; type: ADME, cell-based
[7] = Drug accumulation in human KB cells at 10 uM incubated for 4 hrs by LC-MS/MS analysis; type: ADME, cell-based

Structure (SMILES)	viability at 10 µM [1]	viability at 10 µM [2]	viability at 5 µM [3]	fold change (FC) [4]	fold change (FC) [5]	Drug uptake [6]	Drug uptake [7]
CC(C)(O)[C@H]1CC[C@@](C)(C2CC[C@]3(C)[C@@H]2[C@H](O)C[C@@H]2[C@@]4(C)CC[C@H](O)C(C)(C)[C@@H]4CC[C@]23C)O1 (stereo partly drawn)	94%	64%	–	–	–	–	–
CC(C)(O)[C@@H]1CC[C@@](C)([C@H]2CC[C@]3(C)[C@@H]2[C@H](O)C[C@@H]2[C@@]4(C)CC[C@H](N)C(C)(C)[C@@H]4CC[C@]23C)O1	98%	55%	94%	–	–	–	–
COc1cc2c(cc1OC)CN(CCc1ccc(NC(=O)c3cc(OC)c(OC)cc3NC(=O)c3cnc4ccccc4c3)cc1)CC2	–	–	–	113	150	–	–
CC(C)(O)[C@@H]1CC[C@@](C)([C@H]2CC[C@]3(C)[C@@H]2[C@H](O)C[C@@H]2[C@@]4(C)CC[C@H](NC(=O)[C@@H](N)CCCCN)C(C)(C)[C@@H]4CC[C@]23C)O1	87%	88%	90%	–	–	–	–
CC(C)(C)OC(=O)C[C@H](NC(=O)OC(C)(C)C)C(=O)N[C@H]1CC[C@]2(C)[C@H]3C[C@@H](O)[C@@H]4[C@@H]([C@]5(C)CC[C@H](C(C)(C)O)O5)CC[C@@]4(C)[C@]3(C)CC[C@H]2C1(C)C	152%	28%	41%	–	–	–	–
CC(C)(C)OC(=O)N[C@@H](Cc1ccccc1)C(=O)N[C@H]1CC[C@]2(C)[C@H]3C[C@@H](O)[C@@H]4[C@@H]([C@]5(C)CC[C@H](C(C)(C)O)O5)CC[C@@]4(C)[C@]3(C)CC[C@H]2C1(C)C	104%	24%	30%	22	82	–	–
CC(C)[C@H](N)C(=O)N[C@H]1CC[C@]2(C)[C@H]3C[C@@H](O)[C@@H]4[C@@H]([C@]5(C)CC[C@H](C(C)(C)O)O5)CC[C@@]4(C)[C@]3(C)CC[C@H]2C1(C)C	74%	32%	34%	36	46	–	–
CC(C)(C)OC(=O)N1CCC[C@H]1C(=O)N[C@H]1CC[C@]2(C)[C@H]3C[C@@H](O)[C@@H]4[C@@H]([C@]5(C)CC[C@@H](C(C)(C)O)O5)CC[C@@]4(C)[C@]3(C)CC[C@H]2C1(C)C	111%	30%	44%	–	–	–	–
CC(C)(O)[C@@H]1CC[C@@](C)([C@H]2CC[C@]3(C)[C@@H]2[C@H](O)C[C@@H]2[C@@]4(C)CC[C@H](NC(=O)[C@@H](N)Cc5ccccc5)C(C)(C)[C@@H]4CC[C@]23C)O1	89%	36%	67%	–	–	–	–
CC(C)(O)[C@@H]1CC[C@@](C)([C@H]2CC[C@]3(C)[C@@H]2[C@H](O)C[C@@H]2[C@@]4(C)CC[C@H](NC(=O)[C@@H](N)Cc5ccc(O)cc5)C(C)(C)[C@@H]4CC[C@]23C)O1	91%	71%	88%	–	–	–	–
CC(C)[C@H](NC(=O)OC(C)(C)C)C(=O)N[C@H]1CC[C@]2(C)[C@H]3C[C@@H](O)[C@@H]4[C@@H]([C@]5(C)CC[C@H](C(C)(C)O)O5)CC[C@@]4(C)[C@]3(C)CC[C@H]2C1(C)C	114%	21%	36%	–	–	–	–
CC(C)(C)OC(=O)N1CCC[C@H]1C(=O)N[C@H]1CC[C@]2(C)[C@H]3C[C@@H](O)[C@@H]4[C@@H]([C@]5(C)CC[C@H](C(C)(C)O)O5)CC[C@@]4(C)[C@]3(C)CC[C@H]2C1(C)C	155%	32%	41%	–	–	–	–
CC(C)(C)OC(=O)N[C@@H](Cc1ccccc1)C(=O)N[C@H]1CC[C@]2(C)[C@H]3C[C@@H](O)[C@@H]4[C@@H]([C@]5(C)CC[C@@H](C(C)(C)O)O5)CC[C@@]4(C)[C@]3(C)CC[C@H]2C1(C)C	102%	24%	31%	21	49	–	–
CC(C)[C@H](N)C(=O)N[C@H]1CC[C@]2(C)[C@H]3C[C@@H](O)[C@@H]4[C@@H]([C@]5(C)CC[C@@H](C(C)(C)O)O5)CC[C@@]4(C)[C@]3(C)CC[C@H]2C1(C)C	79%	52%	81%	–	–	–	–
CC(C)(O)[C@H]1CC[C@@](C)([C@H]2CC[C@]3(C)[C@@H]2[C@H](O)C[C@@H]2[C@@]4(C)CC[C@H](N)C(C)(C)[C@@H]4CC[C@]23C)O1	98%	40%	44%	–	–	–	–
CC(C)(O)[C@H]1CC[C@@](C)([C@H]2CC[C@]3(C)[C@@H]2[C@H](O)C[C@@H]2[C@@]4(C)CC[C@H](NC(=O)[C@@H](N)CCCCN)C(C)(C)[C@@H]4CC[C@]23C)O1	116%	112%	110%	–	–	–	–
CC(C)(C)OC(=O)NCCCC[C@H](NC(=O)OC(C)(C)C)C(=O)N[C@H]1CC[C@]2(C)[C@H]3C[C@@H](O)[C@@H]4[C@@H]([C@]5(C)CC[C@@H](C(C)(C)O)O5)CC[C@@]4(C)[C@]3(C)CC[C@H]2C1(C)C	99%	29%	36%	–	–	–	–
CC(C)(O)[C@@H]1CC[C@@](C)([C@H]2CC[C@]3(C)[C@@H]2[C@H](O)C[C@@H]2[C@@]4(C)CC[C@H](NC(=O)[C@@H]5CCCN5)C(C)(C)[C@@H]4CC[C@]23C)O1	78%	58%	83%	–	–	–	–
CC(C)(C)OC(=O)N[C@@H](Cc1ccc(OC(C)(C)C)cc1)C(=O)N[C@H]1CC[C@]2(C)[C@H]3C[C@@H](O)[C@@H]4[C@@H]([C@]5(C)CC[C@H](C(C)(C)O)O5)CC[C@@]4(C)[C@]3(C)CC[C@H]2C1(C)C	125%	38%	42%	–	–	–	–
CC(C)(O)[C@H]1CC[C@@](C)([C@H]2CC[C@]3(C)[C@@H]2[C@H](O)C[C@@H]2[C@@]4(C)CC[C@H](NC(=O)[C@@H](N)CC(=O)O)C(C)(C)[C@@H]4CC[C@]23C)O1	95%	100%	96%	–	–	–	–
CC(C)(O)[C@H]1CC[C@@](C)([C@H]2CC[C@]3(C)[C@@H]2[C@H](O)C[C@@H]2[C@@]4(C)CC[C@H](NC(=O)[C@@H](N)Cc5ccccc5)C(C)(C)[C@@H]4CC[C@]23C)O1	85%	29%	33%	56	321	–	–
CC(C)[C@H](NC(=O)OC(C)(C)C)C(=O)N[C@H]1CC[C@]2(C)[C@H]3C[C@@H](O)[C@@H]4[C@@H]([C@]5(C)CC[C@@H](C(C)(C)O)O5)CC[C@@]4(C)[C@]3(C)CC[C@H]2C1(C)C	89%	31%	48%	–	–	–	–
CC(C)(C)OC(=O)N1CCC[C@H]1C(=O)O[C@H]1CC[C@]2(C)[C@H]3C[C@@H](O)[C@@H]4[C@@H]([C@]5(C)CC[C@@H](C(C)(C)O)O5)CC[C@@]4(C)[C@]3(C)CC[C@H]2C1(C)C	103%	35%	66%	–	–	–	–
CC(C)(C)OC(=O)NCCCC[C@H](NC(=O)OC(C)(C)C)C(=O)N[C@H]1CC[C@]2(C)[C@H]3C[C@@H](O)[C@@H]4[C@@H]([C@]5(C)CC[C@H](C(C)(C)O)O5)CC[C@@]4(C)[C@]3(C)CC[C@H]2C1(C)C	119%	33%	47%	–	–	–	–
CC(C)(O)[C@H]1CC[C@@](C)([C@H]2CC[C@]3(C)[C@@H]2[C@H](O)C[C@@H]2[C@@]4(C)CC[C@H](NC(=O)[C@@H](N)Cc5ccc(O)cc5)C(C)(C)[C@@H]4CC[C@]23C)O1	93%	35%	59%	–	–	–	–
CC(C)(O)[C@@H]1CC[C@@](C)([C@H]2CC[C@]3(C)[C@@H]2[C@H](O)C[C@@H]2[C@@]4(C)CC[C@H](NC(=O)[C@@H](N)CC(=O)O)C(C)(C)[C@@H]4CC[C@]23C)O1	90%	88%	84%	–	–	–	–
CC(C)(C)OC(=O)NCCCCCC(=O)N[C@H]1CC[C@]2(C)[C@H]3C[C@@H](O)[C@@H]4C([C@]5(C)CC[C@H](C(C)(C)O)O5)CC[C@@]4(C)[C@]3(C)CC[C@H]2C1(C)C (stereo partly drawn)	98%	36%	44%	–	–	Not Active	Not Active
CC(C)(C)OC(=O)N1CCC[C@H]1C(=O)O[C@H]1CC[C@]2(C)[C@H]3C[C@@H](O)[C@@H]4[C@@H]([C@]5(C)CC[C@H](C(C)(C)O)O5)CC[C@@]4(C)[C@]3(C)CC[C@H]2C1(C)C	102%	70%	111%	–	–	–	–
CC(C)(O)[C@@H]1CC[C@@](C)([C@H]2CC[C@]3(C)[C@@H]2[C@H](O)C[C@@H]2[C@@]4(C)CC[C@H](OC(=O)[C@@H]5CCCN5)C(C)(C)[C@@H]4CC[C@]23C)O1	113%	116%	113%	–	–	–	–
CC(C)(O)[C@H]1CC[C@@](C)([C@H]2CC[C@]3(C)[C@@H]2[C@H](O)C[C@@H]2[C@@]4(C)CC[C@H](OC(=O)[C@@H]5CCCN5)C(C)(C)[C@@H]4CC[C@]23C)O1	108%	61%	76%	–	–	–	–
